How the values were obtained:
Format in all cases: in vivo
CHENOPODIUM ALBUM, L. [1] = assay: Postemergence herbicidal evaluation, CHEAL (Lambsquarters, Common);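 also: higher means more injury with 8 approaching complete kill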
How it was run: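 Seedlings of common lambsquarters (Chenopodium album) were raised in jiffy flats for roughly two weeks, then sprayed postemergence through a nozzle at 40 psi with test compound dispersed in 50/50 acetone/water containing 0.5% TWEEN®20 surfactant. Plants were kept on greenhouse benches under standard care and rated visually on a 0-9 scale versus controls.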

[2] = test system: ABUTILON THEOPHRASTI, MEDIC.; assay: Postemergence herbicidal evaluation, ABUTH (Velvetleaf);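 also: higher means more injury with 8 approaching complete kill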
How it was run: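 Velvetleaf (Abutilon theophrasti) seedlings were raised in jiffy flats for about two weeks and then sprayed postemergence. The test compound was dispersed in a 50/50 acetone/water mixture containing 0.5% TWEEN®20 and applied through a nozzle operating at 40 psi. Plants were kept on greenhouse benches and rated 0-9 four to five weeks after treatment.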

CASSIA OBTUSIFOLIA, L. = assay: Postemergence herbicidal evaluation, CASOB (Sicklepod); design: key to CASOB rating / Herbicidal effect rating, CASOB / CASOB: 0-9 visual rating scale vs untreated control;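 also: higher means more injury with 8 approaching complete kill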
How it was run: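 Two-week-old seedlings sprayed with compound in 50/50 acetone/water plus 0.5% TWEEN 20 at about 0.125–0.500 kg/ha via nozzle at 40 psi. Kept in greenhouse; rated visually 4–5 weeks after treatment on a 0–9 scale versus untreated control, averaging repeat tests.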

[3] = test system: AMBROSIA ARTEMISIIFOLIA, L.; assay: Postemergence herbicidal evaluation, AMBEL (Ragweed, Common);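 also: higher means more injury with 8 approaching complete kill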
How it was run: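 Common ragweed (Ambrosia artemisiifolia) seedlings were raised in jiffy flats for roughly two weeks, then sprayed postemergence through a nozzle at 40 psi with the test compound dispersed in 50/50 acetone/water carrying 0.5% TWEEN®20. The plants were kept on greenhouse benches under conventional care. Four to five weeks later, injury was rated visually on a 0-9 scale, and repeat tests were averaged.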

[4] = test system: TRITICUM AESTIVUM, CV. APOLLO; assay: Postemergence herbicidal evaluation, TRZAWO (Wheat, Winter, CV. APOLLO);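 also: higher means more injury with 8 approaching complete kill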
How it was run: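 Wheat seedlings, raised in jiffy flats for roughly two weeks, were sprayed postemergence with test compound dispersed in a 50/50 acetone/water mixture containing 0.5% TWEEN®20 surfactant, delivered through a nozzle at 40 psi. Plants were then kept on greenhouse benches under conventional care. Four to five weeks after treatment they were rated visually on a 0-9 scale against an untreated control, and ratings from repeated tests were averaged.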

CHENOPODIUM ALBUM, L. [5] = assay: Preemergence herbicidal evaluation, CHEAL (Lambsquarters, Common);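 also: higher means more injury with 8 approaching complete kill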
How it was run: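 Preemergence, greenhouse: seed + potting soil sown on ~1 inch soil in cups; aqueous acetone spray, ~0.125–0.50 kg/ha equivalent; rated 0-9 vs control at 4–5 wk.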

IPOMOEA SPP. = assay: Postemergence herbicidal evaluation, IPOSS (Morningglory spp.);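 also: higher means more injury with 8 approaching complete kill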
How it was run: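 Seedlings of morningglory (Ipomoea spp.) were raised in jiffy flats for roughly two weeks. They were then sprayed postemergence through a nozzle at 40 psi with test compound dispersed in 50/50 acetone/water containing 0.5% TWEEN®20 surfactant. Plants were kept on greenhouse benches under standard care and visually rated 0-9 against controls four to five weeks after treatment.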

[6] = test system: SETARIA VIRIDIS, (L) BEAU; assay: Postemergence herbicidal evaluation, SETVI (Foxtail, Green); design: key to SETVI rating / Herbicidal effect rating, SETVI / SETVI: 0-9 visual rating scale vs untreated control
How it was run: (§1)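 Greenhouse postemergence test. Seedlings (~2 wk) sprayed at 40 psi; dose ~0.125–0.500 kg/ha in acetone/water (1:1), 0.5% TWEEN 20. Scored 0–9 at 4–5 wk.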

[7] = test system: ECHINOCHLOA CRUS-GALLI, (L) BEAU; assay: Postemergence herbicidal evaluation, ECHCG (Barnyardgrass); design: key to ECHCG rating / Herbicidal effect rating, ECHCG / ECHCG: 0-9 visual rating scale vs untreated control
How it was run: as §1

[8] = test system: ORYZA SATIVA, L. TEBONNET; assay: Rice tolerance to post-transplant applications under flooded paddy conditions, ORYSAT (Rice, Tebonnet); details: post-transplanted rice
How it was run: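 Two ten-day-old Tebonnet rice seedlings were transplanted into silt loam and kept flooded 1.5 to 3 cm deep. Three days after transplanting, the flood surface received the compound in aqueous/acetone 50/50 v/v at about 0.5, 0.25, 0.125 or 0.063 kg/ha. Injury was rated visually on a 0-9 scale versus control after 3-4 weeks.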

ZEA MAYS L. = assay: Postemergence herbicidal evaluation, ZEAMX (Corn, Field);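 also: higher means more injury with 8 approaching complete kill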
How it was run: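 Corn seedlings were raised in jiffy flats for roughly two weeks, then sprayed postemergence with the test material dispersed in 50/50 acetone/water containing 0.5% TWEEN®20 surfactant, using a nozzle at 40 psi. Plants were kept on greenhouse benches under standard care and visually rated on a 0-9 scale four to five weeks after treatment.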

With `Cn1c(=O)[nH]c(=O)n(-c2cc(Oc3c(F)cc(C(F)(F)F)cc3Cl)ccc2[N+](=O)[O-])c1=O` [D, reference compound] the CHEAL (CHENOPODIUM ALBUM, L. [1]; Rate 0.008 kg/ha) was 7.0, the CHEAL (CHENOPODIUM ALBUM, L. [1]; Rate 0.016 kg/ha) was 7.3 and the CHEAL (CHENOPODIUM ALBUM, L. [1]; Rate 0.031 kg/ha) was 6.3. For the same molecule, the CHEAL (CHENOPODIUM ALBUM, L. [1]; Rate 0.063 kg/ha) was 7.0, the CHEAL (CHENOPODIUM ALBUM, L. [1]; Rate 0.125 kg/ha) was 9.0 and the ABUTH ([2]; Rate 0.008 kg/ha) was 0.0. For the same molecule, the ABUTH ([2]; Rate 0.016 kg/ha) was 8.3, the ABUTH ([2]; Rate 0.031 kg/ha) was 8.7 and the ABUTH ([2]; Rate 0.063 kg/ha) was 9.0. For the same molecule, the ABUTH ([2]; Rate 0.125 kg/ha) was 9.0, the CASOB (CASSIA OBTUSIFOLIA, L.; Rate 0.008 kg/ha) was 1.0 and the CASOB (CASSIA OBTUSIFOLIA, L.; Rate 0.016 kg/ha) was 4.3. For the same molecule, the CASOB (CASSIA OBTUSIFOLIA, L.; Rate 0.031 kg/ha) was 5.0, the CASOB (CASSIA OBTUSIFOLIA, L.; Rate 0.063 kg/ha) was 6.0 and the CASOB (CASSIA OBTUSIFOLIA, L.; Rate 0.125 kg/ha) was 9.0. It also gave an AMBEL ([3]; Rate 0.008 kg/ha) of 5.0, an AMBEL ([3]; Rate 0.016 kg/ha) of 7.3 and an AMBEL ([3]; Rate 0.031 kg/ha) of 8.0. It also gave an AMBEL ([3]; Rate 0.063 kg/ha) of 8.0, an AMBEL ([3]; Rate 0.125 kg/ha) of 8.5 and a TRZAWO ([4]; Rate 0.016 kg/ha) of 3.5. The TRZAWO ([4]; Rate 0.031 kg/ha) was 4.5, the TRZAWO ([4]; Rate 0.063 kg/ha) was 5.3 and the TRZAWO ([4]; Rate 0.125 kg/ha) was 5.3. The CHEAL (CHENOPODIUM ALBUM, L. [5]; Rate 0.031 kg/ha) was 9.0, the CHEAL (CHENOPODIUM ALBUM, L. [5]; Rate 0.063 kg/ha) was 9.0 and the CHEAL (CHENOPODIUM ALBUM, L. [5]; Rate 0.125 kg/ha) was 9.0. It also gave a CHEAL (CHENOPODIUM ALBUM, L. [5]; Rate 0.250 kg/ha) of 9.0, an IPOSS (IPOMOEA SPP.; Rate 0.016 kg/ha) of 7.3 and an IPOSS (IPOMOEA SPP.; Rate 0.031 kg/ha) of 7.7. The IPOSS (IPOMOEA SPP.; Rate 0.063 kg/ha) was 7.3, the IPOSS (IPOMOEA SPP.; Rate 0.125 kg/ha) was 9.0 and the SETVI ([6]; Rate 0.008 kg/ha) was 0.0. It also gave an SETVI ([6]; Rate 0.016 kg/ha) of 1.0, an SETVI ([6]; Rate 0.031 kg/ha) of 1.3 and an SETVI ([6]; Rate 0.063 kg/ha) of 1.3. The SETVI ([6]; Rate 0.125 kg/ha) was 1.5, the ECHCG ([7]; Rate 0.016 kg/ha) was 3.0 and the ECHCG ([7]; Rate 0.031 kg/ha) was 1.5. It also gave an ECHCG ([7]; Rate 0.063 kg/ha) of 2.0, an ECHCG ([7]; Rate 0.125 kg/ha) of 2.5 and an ORYSAT ([8]; Rate 0.031 kg/ha) of 3.0. It also gave an ORYSAT ([8]; Rate 0.063 kg/ha) of 3.0, an ORYSAT ([8]; Rate 0.125 kg/ha) of 3.0 and an ORYSAT ([8]; Rate 0.250 kg/ha) of 6.0. It also gave a ZEAMX (ZEA MAYS L.; Rate 0.008 kg/ha) of 1.0, a ZEAMX (ZEA MAYS L.; Rate 0.016 kg/ha) of 3.3 and a ZEAMX (ZEA MAYS L.; Rate 0.031 kg/ha) of 3.3. For the same molecule, the ZEAMX (ZEA MAYS L.; Rate 0.063 kg/ha) was 4.2 and the ZEAMX (ZEA MAYS L.; Rate 0.125 kg/ha) was 5.5.
